According to PubChem BioAssay AID489033 (Sanford-Burnham Center for Chemical Genomics, 2010):
Calls of active or inactive are those of the source. No rule for the calls is given here.

Tested on: 697B B-cell line, NF-kB luciferase reporter luminescence
Assay: NF-kB reporter inhibition in B cells, dose response, selectivity assay for T-cell antigen receptor NF-kB inhibitors, 697B cells, luminescence (AID 489033)

Cc1ccc2c(c1)C=CC(C#N)N2C(=O)c1ccccc1 (stereo not drawn)
IC50: > 80 µM (inactive)

CC(=O)O[C@@]12CO[C@@H]1C[C@H](O)[C@@]1(C)C(=O)[C@H](O)C3=C(C)[C@@H](OC(=O)[C@H](O)[C@@H](NC(=O)c4ccccc4)c4ccccc4)C[C@@](O)([C@@H](OC(=O)c4ccccc4)C12)C3(C)C (stereo partly drawn)
IC50: > 80 µM (inactive)

Cc1ccc(N/C(N)=N/c2nc(CSc3nnc(C)s3)cc(=O)[nH]2)c(C)c1
IC50: > 80 µM (inactive)

O=C1c2c(O)ccc(O)c2C(=O)c2c(NCCNCCO)ccc(NCCNCCO)c21
IC50: 4.2 µM

CC(C)(C)c1csc(Sc2ccc([N+](=O)[O-])cn2)n1
IC50: 10.2 µM

Cc1cccc(N2CCN(C(=O)c3ccc4[nH]c(C)c(C)c4c3)CC2)c1C
IC50: > 80 µM (inactive)

Oc1ccc(Nc2nc3ccccc3nc2Nc2ccc(O)cc2)cc1
IC50: 3.73 µM

O[C@@H]1[C@@H](O)C=C2CCN3Cc4cc5c(cc4[C@H]1C23)OCO5 (stereo partly drawn)
IC50: 3.28 µM

Cc1nc(NCc2ccco2)c2c(C)c(C)sc2n1
IC50: 5.3 µM

Cc1cnc(NC(=O)c2ccc3c(c2)OCCO3)s1
IC50: 1.08 µM

COc1ccc(OC)c(C2CC(=O)c3c([nH]c(C(=O)OC(C)C)c3C)C2)c1 (stereo not drawn)
IC50: > 80 µM (inactive)

COc1cccc(/C=N/Nc2ncnc3c2ncn3Cc2ccccc2)c1O
IC50: 23.4 µM (inactive)

COc1ccc(OC)c(COC(=O)c2cc([N+](=O)[O-])ccc2N2CCOCC2)c1
IC50: > 80 µM (inactive)

Cc1cc(-c2ccc(S(=O)(=O)N(C)c3ccc(C)c(C)c3)s2)on1
IC50: > 80 µM (inactive)

Nc1nc(Cl)cc(N2CCC(c3cc(-c4ccc(Cl)cc4)n[nH]3)CC2)n1
IC50: 5.28 µM

COc1ccc(Nc2ncnc3ccc(Br)cc23)c(OC)c1
IC50: 0.37 µM

O=S(=O)(c1cc(F)ccc1F)N1CCN(c2ncnc3ccccc23)CC1
IC50: 74.1 µM (inactive)

O=C1CC(c2cccc(Br)c2)c2cc3c(cc2N1)CCC3 (stereo not drawn)
IC50: 30.7 µM (inactive)

Cc1csc2ncnc(NC3CCN(Cc4ccccc4)CC3)c12
IC50: 8.31 µM

COC(=O)Cc1[nH]n(-c2nc3ccccc3s2)c(=O)c1C(C)=Nc1ccc(OC)cc1
IC50: 4.93 µM

Cc1cc2c(cc1C)C(c1ccccc1OC(C)C)CC(=O)N2 (stereo not drawn)
IC50: > 80 µM (inactive)

COc1cccc(/C=N/Nc2ncnc3scc(-c4ccccc4)c23)c1O
IC50: 39.8 µM (inactive)

C/C(=N\NC(=O)c1ccc(Cl)c(Cl)c1)c1ccccn1
IC50: 1.03 µM

O=C(Nc1ccncc1)c1ccc(Cl)c(S(=O)(=O)N2CCc3ccccc32)c1
IC50: 61.9 µM (inactive)

CCn1c2ccccc2c2cc(NC(=O)c3cc(OC)c(OC)c(OC)c3)ccc21
IC50: 18.5 µM

CCCCCCCCCCCCCCCC[n+]1ccc(/C=N/O)cc1
IC50: 13 µM

COc1cccc(CN(C)C(=O)c2cc(COc3ccc4ncccc4c3)on2)c1
IC50: > 80 µM (inactive)

COc1ccc([C@H]2CC(=O)C=C(c3ccc(OC)cc3OC)C2)cc1
IC50: > 80 µM (inactive)

O=C(Nc1ccc(S(=O)(=O)N2CCN(Cc3ccccc3)CC2)cc1)c1cnccn1
IC50: > 80 µM (inactive)

O=Cc1cc2ccccc2nc1SCc1ccc(Cl)c(Cl)c1
IC50: 48.8 µM (inactive)

Cc1cc(C)c2nc(C)cc(N/N=C/c3ccc(O)cc3)c2c1
IC50: 3.49 µM

Cc1noc(C)c1COc1ccc(CC(=O)NCc2ccccc2)cc1
IC50: > 80 µM (inactive)

CCCCCCCCCn1c2c(c(=N)c3c1CCC3)CCCC2
IC50: 0.33 µM

COc1cc2c(c(OC)c1OC)-c1ccc(OC)c(=O)cc1[C@@H](N(C)CC#CCO)CC2
IC50: > 80 µM (inactive)

O=C(Cc1ccc(-c2ccccc2)cc1)NCc1ccccc1
IC50: > 80 µM (inactive)

Cc1ccc2nc(C)c(CN3CCN(c4ccc([N+](=O)[O-])cc4Cl)CC3)n2c1
IC50: > 80 µM (inactive)

CC(C)(C)c1cc(C=C(C#N)C#N)cc(C(C)(C)C)c1O
IC50: > 80 µM (inactive)

CCC(C)C(=O)N[C@@H](c1ccccc1)[C@@H](O)C(=O)O[C@H]1C[C@@]2(O)[C@@H](OC(=O)c3ccccc3)C3[C@](C)(C(=O)[C@H](OC(C)=O)C(=C1C)C2(C)C)[C@@H](O)C[C@H]1OC[C@@]31OC(C)=O (stereo partly drawn)
IC50: > 80 µM (inactive)

Cc1ccc(Nc2cc(C)nn2-c2nc(C)cc(=O)[nH]2)cc1
IC50: 0.95 µM

COc1ccc(OCC(=O)Nc2ccccc2N2CCCCC2)cc1
IC50: > 80 µM (inactive)

CCCCC(=O)NC(c1ccc(Cl)cc1Cl)c1ccc2cccnc2c1O (stereo not drawn)
IC50: > 80 µM (inactive)

CC(=O)N(C)C1=C(N2CCOCC2)C(=O)c2ccccc2C1=O
IC50: 17.9 µM

O=c1cc(-c2cccc(F)c2)[nH]c2ccccc12
IC50: > 80 µM (inactive)

Cc1ccc(C)c(N=Nc2ccc(O)c3ncccc23)c1
IC50: 4.44 µM

C[C@@H]1O[C@@H](O[C@H]2C[C@@H](O)[C@]3(CO)[C@@H]4C(CC[C@]3(O)C2)[C@@]2(O)CC[C@H](C3COC(=O)C3)[C@@]2(C)C[C@H]4O)[C@H](O)[C@H](O)[C@H]1O (stereo partly drawn)
IC50: 12.2 µM

COCCn1c(C)cc(C2=NNC(=Nc3ccccc3F)SC2)c1C
IC50: 20.7 µM (inactive)

CCn1c2ccccc2c2cc(Nc3cc(C)nc4ncnn34)ccc21
IC50: 47 µM (inactive)

COc1cc(Nc2ccc(C)cc2)c([N+](=O)[O-])nc1[N+](=O)[O-]
IC50: > 80 µM (inactive)

COc1ccccc1-c1nnc2n1N=C(c1ccc(O)c(O)c1)CS2
IC50: 77.9 µM (inactive)

COc1ccc(CNS(=O)(=O)c2cc(-c3cc(C)no3)ccc2C(C)C)cc1
IC50: > 80 µM (inactive)

COc1ccccc1N1CCN(C(=O)C2c3ccccc3Oc3ccccc32)CC1
IC50: > 80 µM (inactive)

CCCCC(=O)NC(c1ccc(N(CC)CC)cc1)c1ccc2cccnc2c1O (stereo not drawn)
IC50: > 80 µM (inactive)

CCC(=O)N1c2ccc(S(=O)(=O)N3CCN(c4ccc([N+](=O)[O-])cc4)CC3)cc2CC1C (stereo not drawn)
IC50: > 80 µM (inactive)

Cc1ccc(S(=O)(=O)NCc2ccncc2)cc1C
IC50: > 80 µM (inactive)

CCC1CCCCN1C(=O)c1cc(COc2ccc3ncccc3c2)on1 (stereo not drawn)
IC50: > 80 µM (inactive)

COc1cc(-c2noc(C)c2C#Cc2ccsc2)cc(OC)c1OC
IC50: 77.7 µM (inactive)

O=S1(=O)C=C(Sc2nc3cc(Cl)ccc3o2)c2ccccc21
IC50: 0.21 µM

O=C(NCc1ccc2c(c1)OCO2)c1cc([N+](=O)[O-])ccc1N1CCOCC1
IC50: > 80 µM (inactive)

COc1ccc(/C=C/C(=O)c2cc(F)ccc2OC(=O)c2ccccc2)cc1OC
IC50: > 80 µM (inactive)

CCCCN1/C(=C/c2ccc3ccccc3[n+]2CC)Sc2ccccc21
IC50: 8.19 µM

O=[N+]([O-])c1ccc(-c2nc(C(Cl)Cl)c3ccccc3n2)cc1
IC50: 1.6 µM

COc1ccc2c(C)nc(Nc3nc(-c4ccccc4)cc(=O)[nH]3)nc2c1
IC50: > 80 µM (inactive)

O=C(Nc1ccc(F)cc1)c1ccc(CN2CCc3ccccc3C2)cc1
IC50: > 80 µM (inactive)

COc1cccc(-c2cc(C(=O)Nc3cc(C)n(Cc4ccc(Cl)cc4)n3)no2)c1
IC50: > 80 µM (inactive)

COc1cccc2sc(Nc3nnc(-c4ccccc4Cl)o3)nc12
IC50: 3.64 µM

CC(=O)c1ccc(Oc2cc(C)nc(-n3nc(C)cc3C)n2)cc1
IC50: > 80 µM (inactive)

CCN(CC)S(=O)(=O)c1ccc(NC(=O)c2ccc(CN3CCOCC3)cc2)cc1
IC50: 10.1 µM

O=C(CSc1nnc(Cn2nnc3ccccc32)o1)N(Cc1ccc(F)cc1)c1ccccc1
IC50: 12.7 µM

CCOc1ccc2c(c1)sc(N)[n+]2Cc1cc(C)cc2cccnc12
IC50: 33.3 µM (inactive)

C=CCNC(=S)N/N=C(\C)c1ccccn1
IC50: 0.61 µM

C=CCn1c(C)cc(C2=NNC(=NCC)SC2)c1C
IC50: < 0.16 µM

COCCCNC(=O)C(=O)Nc1ccc2c(c1)N(S(=O)(=O)c1cccs1)CCC2
IC50: > 80 µM (inactive)

C=C(C=O)C[C@@H]1C[C@H](O)C2OC3C[C@]4(C)OC5/C=C\CC6OC7C(CC=CCC6OC5CCCC4OC3CC2O1)OC1CC2OC3CC(=O)OC3C[C@@H](C)C[C@@]2(C)OC1C[C@@H]7C (stereo partly drawn)
IC50: 1.02 µM

Cc1ccc(NC(=O)Nc2ccnc(-c3cccnc3)n2)cc1
IC50: 1.05 µM

CCCCn1c2c(c(=N)c3c1CCC3)CCC2
IC50: > 80 µM (inactive)

CC(Nc1ncnc2ccccc12)c1ccccc1 (stereo not drawn)
IC50: > 80 µM (inactive)

COC(=O)C[C@]1(C(=O)OC)CN(C#N)N(c2ccc(Cl)cc2)C12c1ccccc1-c1ccccc12
IC50: 4.43 µM

N/C(=N\OCc1ccc([N+](=O)[O-])cc1)c1ccccn1
IC50: 2.43 µM

CC(C)(C)c1ccc(C(=O)O/N=C(\N)c2ccccn2)cc1
IC50: 0.88 µM

CCOC(=O)C(C)Oc1cccc2c(=O)n(CC(=O)NCc3ccc(F)cc3)ccc12 (stereo not drawn)
IC50: > 80 µM (inactive)

COc1cc(CC(=O)OCC(=O)c2ccc3c(c2)OCCO3)cc(OC)c1OC
IC50: > 80 µM (inactive)

CS(=O)(=O)c1ccc(Sc2nc3ccccc3s2)c([N+](=O)[O-])c1
IC50: 1.11 µM

Cc1nc(Nc2nc3c(c(=O)[nH]2)CCC3)nc2ccccc12
IC50: 6.06 µM

C[C@]12CCC3C(CCC4=CC(O)CC[C@@]43/C=N/O)C1(O)CCC2C1=CC(=O)OC1 (stereo partly drawn)
IC50: 2.58 µM

CCCCOc1ccc(Br)cc1/C(C)=N/NC1=NCCN1
IC50: 28.6 µM (inactive)

CCOC(=O)CC1CCCCN1C(=O)c1cc(COc2cccc3cnccc23)on1 (stereo not drawn)
IC50: > 80 µM (inactive)

CCCCCCCCCCCCCCCC[n+]1cccc(C(=O)N(CC)CC)c1
IC50: 3.3 µM

CC(Oc1ccc(Cl)cc1Cl)C(=O)Nc1ccncc1 (stereo not drawn)
IC50: > 80 µM (inactive)

COc1ccc(C[C@H](N)C(=O)N[C@H]2[C@@H](O)[C@H](n3cnc4c(N(C)C)ncnc43)O[C@@H]2CO)cc1
IC50: 1.62 µM

COC(=O)C(Cc1ccc(N(CCCl)CCCl)cc1)N=Cc1ccccc1O (stereo not drawn)
IC50: 0.31 µM

CN1/C(=C\C(=O)C[n+]2ccc3ccccc3c2)C(C)(C)c2ccccc21
IC50: > 80 µM (inactive)

Cc1cc(=O)oc2cc(OCC3CC(c4ccccc4Cl)=NO3)ccc12 (stereo not drawn)
IC50: > 80 µM (inactive)

CCOc1ccc(NC(=O)c2cc3c(C)nc4ccccc4c3o2)cc1
IC50: > 80 µM (inactive)

CCOC(=O)N/N=C/c1c(C)nn(-c2cccc(C(F)(F)F)c2)c1Cl
IC50: > 80 µM (inactive)

Cc1c(C(=O)N/N=C/c2ccc(Cl)cc2)[nH]c2ccc(Cl)cc12
IC50: > 80 µM (inactive)

COc1cc(NS(=O)(=O)c2ccc(C)cc2)c2ncccc2c1
IC50: 1.05 µM

CCCC1=Nc2cc(C(=O)NCCCOCC)ccc2Sc2ccccc21
IC50: > 80 µM (inactive)

COC(=O)Nc1ccc(S(=O)(=O)N2CCCc3ccccc32)cc1
IC50: > 80 µM (inactive)
